Laboratory results as given in patent publication US20130281467A1, “NOVEL MICROBICIDES” (SYNGENTA PARTICIPATIONS AG, priority 2010, published 2013).

Experiments:
[1] = test system: Glomerella lagenarium (Colletotrichum lagenarium); assay: Fungicidal activity against Glomerella lagenarium (Colletotrichum lagenarium) / liquid culture (anthracnose); assay type: cell-based; conditions: Colletotrichum orbiculare, 3-4 days after application, read-out: disease control (inhibition of growth, photometrically)
Method: (§1) Fungicidal Activity Against Glomerella lagenarium (Colletotrichum lagenarium)/Liquid Culture (Anthracnose) Conidia of the fungus from cryogenic storage were directly mixed into nutrient broth (PDB potato dextrose broth). After placing a (DMSO) solution of test compound into a microtiter plate (96-well format), the nutrient broth containing the fungal spores was added. The test plates were incubated at 24° C. and the inhibition of growth was measured photometrically 3-4 days after application.

[2] = test system: Mycosphaerella graminicola (Septoria tritici); assay: Fungicidal activity against Mycosphaerella graminicola (Septoria tritici) / liquid culture (Septoria blotch); assay type: cell-based; conditions: Zymoseptoria tritici, 4-5 days after application, read-out: disease control (inhibition of growth, photometrically)
Method: as §1, with “Mycosphaerella graminicola (Septoria tritici)/Liquid” for “Glomerella lagenarium (Colletotrichum lagenarium)/Liquid”, “(Septoria Blotch)” for “(Anthracnose)”, “determined” for “measured”, “4-5” for “3-4”

[3] = test system: Monographella nivalis (Microdochium nivale); assay: Fungicidal activity against Monographella nivalis (Microdochium nivale) / liquid culture (foot rot cereals); assay type: cell-based; conditions: 4-5 days after application, read-out: disease control (inhibition of growth, photometrically)
Method: as §1, with “Monographella nivalis (Microdochium nivale)/Liquid” for “Glomerella lagenarium (Colletotrichum lagenarium)/Liquid”, “(Foot Rot Cereals)” for “(Anthracnose)”, “determined” for “measured”, “4-5” for “3-4”

[4] = test system: Botryotinia fuckeliana (Botrytis cinerea); assay: Fungicidal activity against Botryotinia fuckeliana (Botrytis cinerea) / liquid culture (gray mould); assay type: cell-based; conditions: 3-4 days after application, read-out: disease control (inhibition of growth, photometrically)
Method: as §1, with “Botryotinia fuckeliana (Botrytis cinerea)/Liquid” for “Glomerella lagenarium (Colletotrichum lagenarium)/Liquid”, “(Gray Mould)” for “(Anthracnose)”, “(Vogels” for “(PDB potato dextrose”, “determined” for “measured”

[5] = test system: Mycosphaerella arachidis (Cercospora arachidicola); assay: Fungicidal activity against Mycosphaerella arachidis (Cercospora arachidicola) / liquid culture (early leaf spot); assay type: cell-based; conditions: 4-5 days after application, read-out: disease control (inhibition of growth, photometrically)
Method: as §1, with “Mycosphaerella arachidis (Cercospora arachidicola)/Liquid” for “Glomerella lagenarium (Colletotrichum lagenarium)/Liquid”, “(Early Leaf Spot)” for “(Anthracnose)”, “determined” for “measured”, “4-5” for “3-4”

[6] = test system: Gaeumannomyces graminis; assay: Fungicidal activity against Gaeumannomyces graminis / liquid culture (take-all of cereals); assay type: cell-based; conditions: 4-5 days after application, read-out: disease control (inhibition of growth, photometrically)
Method: Fungicidal Activity Against Gaeumannomyces graminis/Liquid Culture (Take-all of Cereals) Mycelial fragments of the fungus from cryogenic storage were directly mixed into nutrient broth (PDB potato dextrose broth). After placing a (DMSO) solution of test compound into a microtiter plate (96-well format), the nutrient broth containing the fungal spores iss added. The test plates were incubated at 24° C. and the inhibition of growth was determined photometrically 4-5 days after application.

[7] = test system: Phaeosphaeria nodorum (Septoria nodorum); assay: Fungicidal activity against Phaeosphaeria nodorum (Septoria nodorum) / wheat / leaf disc preventative (glume blotch); assay type: in vivo; conditions: Parastagonospora nodorum, foliar, wheat leaf segments, inoculated 2 days after application, compared to untreated, read-out: disease control
Method: Fungicidal Activity Against Phaeosphaeria nodorum (Septoria nodorum)/Wheat/Leaf Disc Preventative (Glume Blotch) Wheat leaf segments cv. Kanzler were placed on agar in a multiwell plate (24-well format) and sprayed with the formulated test compound diluted in water. The leaf disks were inoculated with a spore suspension of the fungus 2 days after application. The inoculated test leaf disks were incubated at 20° C. and 75% rh under a light regime of 12 h light/12 h darkness in a climate cabinet and the activity of a compound was assessed as percent disease control compared to untreated when an appropriate level of disease damage appears in untreated check leaf disks (5-7 days after application).

[8] = test system: Thanatephorus cucumeris (Rhizoctonia solani); assay: Fungicidal activity against Thanatephorus cucumeris (Rhizoctonia solani) / liquid culture (foot rot, damping-off); assay type: cell-based; conditions: 3-4 days after application, read-out: disease control (inhibition of growth, photometrically)
Method: Fungicidal Activity Against Thanatephorus cucumeris (Rhizoctonia solani)/Liquid Culture (Foot Rot, Damping-Off) Mycelia fragments of a newly grown liquid culture of the fungus were directly mixed into nutrient broth (PDB potato dextrose broth). After placing a (DMSO) solution of the test compounds into a microtiter plate (96-well format), the nutrient broth containing the fungal material was added. The test plates were incubated at 24° C. and the inhibition of growth was determined photometrically 3-4 days after application.

[9] = test system: Puccinia recondita f. sp. tritici; assay: Fungicidal activity against Puccinia recondita f. sp. tritici / wheat / leaf disc preventative (brown rust); assay type: in vivo; conditions: foliar, wheat leaf segments, inoculated 1 day after application, compared to untreated, read-out: disease control
Method: Fungicidal Activity Against Puccinia recondita f. sp. tritici/Wheat/Leaf Disc Preventative (Brown Rust) Wheat leaf segments cv. Kanzler were placed on agar in multiwell plates (24-well format) and sprayed with the formulated test compound diluted in water. The leaf disks were inoculated with a spore suspension of the fungus 1 day after application. The inoculated leaf segments were incubated at 19° C. and 75% rh under a light regime of 12 h light/12 h darkness in a climate cabinet and the activity of a compound was assessed as percent disease control compared to untreated when an appropriate level of disease damage appears in untreated check leaf segments (7-9 days after application).

[10] = test system: Blumeria graminis f. Sp. tritici (Erysiphe graminis f. sp. tritici); assay: Fungicidal activity against Blumeria graminis f. sp. tritici / wheat / leaf disc preventative (powdery mildew on wheat); assay type: in vivo; conditions: foliar, wheat leaf segments, inoculated 1 day after application, compared to untreated, read-out: disease control
Method: Fungicidal Activity Against Blumeria graminis f. Sp. tritici (Erysiphe graminis f. sp. tritici)/Wheat/Leaf Disc Preventative (Powdery Mildew on Wheat)
Wheat leaf segments cv. Kanzler were placed on agar in a multiwell plate (24-well format) and sprayed with the formulated test compound diluted in water. The leaf disks were inoculated by shaking powdery mildew infected plants above the test plates 1 day after application. The inoculated leaf disks were incubated at 20° C. and 60% rh under a light regime of 24 h darkness followed by 12 h light/12 h darkness in a climate chamber and the activity of a compound was assessed as percent disease control compared to untreated when an appropriate level of disease damage appears on untreated check leaf segments (6-8 days after application).

[11] = test system: Pyrenophora teres; assay: Fungicidal activity against Pyrenophora teres / barley / leaf disc preventative (net blotch); assay type: in vivo; conditions: foliar, barley leaf segments, inoculated 2 days after application, compared to untreated, read-out: disease control
Method: Fungicidal Activity Against Pyrenophora teres/Barley/Leaf Disc Preventative (Net Blotch) Barley leaf segments cv. Hasso were placed on agar in a multiwell plate (24-well format) and sprayed with the formulated test compound diluted in water. The leaf segments were inoculated with a spore suspension of the fungus 2 days after application. The inoculated leaf segments were incubated at 20° C. and 65% rh under a light regime of 12 h light/12 h darkness in a climate cabinet and the activity of a compound was assessed as disease control compared to untreated when an appropriate level of disease damage appears in untreated check leaf segments (5-7 days after application).

CO/N=C1\CC(C)(C)Cc2nc(-c3cccc(Cc4ccccc4)n3)ncc21 [Compound 23]
≥ 80%: inhibition at 200 ppm [1] | inhibition at 200 ppm [2] | inhibition at 200 ppm [3] | inhibition at 200 ppm [4] | inhibition at 200 ppm [5] | inhibition at 200 ppm [6]

CO/N=C1\CCCc2nc(-c3cccc(Cc4ccccc4Cl)n3)ncc21 [Compound 24]
≥ 80%: inhibition at 200 ppm [1] | inhibition at 200 ppm [2] | pest or weed control at 200 ppm [7] | inhibition at 200 ppm [8] | inhibition at 200 ppm [3] | inhibition at 200 ppm [4] | inhibition at 200 ppm [5] | pest or weed control at 200 ppm [9] | inhibition at 200 ppm [6]

c1ccc(Cc2cccc(-c3ncc4c(n3)C3CCC4C3)n2)cc1 (stereo not shown) [Compound 26]
≥ 80%: inhibition at 200 ppm [1] | inhibition at 200 ppm [2] | pest or weed control at 200 ppm [7] | inhibition at 200 ppm [8] | inhibition at 200 ppm [3] | inhibition at 200 ppm [4] | pest or weed control at 200 ppm [10] | inhibition at 200 ppm [5] | pest or weed control at 200 ppm [9] | pest or weed control at 200 ppm [11] | inhibition at 200 ppm [6]

CO/N=C1\CCCc2nc(-c3cccc(Cc4ccccc4OC)n3)ncc21 [Compound 27]
≥ 80%: inhibition at 200 ppm [1] | inhibition at 200 ppm [2] | pest or weed control at 200 ppm [7] | inhibition at 200 ppm [3] | inhibition at 200 ppm [4] | pest or weed control at 200 ppm [10] | inhibition at 200 ppm [5] | pest or weed control at 200 ppm [9] | pest or weed control at 200 ppm [11] | inhibition at 200 ppm [6]

Clc1ccccc1Cc1cccc(-c2ncc3c(n2)OCCO3)n1 [Compound 28]
≥ 80%: inhibition at 200 ppm [1] | inhibition at 200 ppm [2] | pest or weed control at 200 ppm [7] | inhibition at 200 ppm [8] | inhibition at 200 ppm [3] | inhibition at 200 ppm [4] | pest or weed control at 200 ppm [10] | inhibition at 200 ppm [5] | pest or weed control at 200 ppm [9] | pest or weed control at 200 ppm [11] | inhibition at 200 ppm [6]

c1ccc(Cc2cccc(-c3ncc4c(n3)CCCCC4)n2)cc1 [Compound 29, 2-(6-Benzyl-pyridin-2-yl)-6,7,8,9-tetrahydro-5H-cycloheptapyrimidine]
≥ 80%: inhibition at 200 ppm [1] | inhibition at 200 ppm [2] | pest or weed control at 200 ppm [7] | inhibition at 200 ppm [8] | inhibition at 200 ppm [3] | inhibition at 200 ppm [4] | pest or weed control at 200 ppm [10] | inhibition at 200 ppm [5] | pest or weed control at 200 ppm [9] | pest or weed control at 200 ppm [11] | inhibition at 200 ppm [6]

Cc1ccc(Cc2cccc(-c3ncc4c(n3)CCCCC4)n2)cc1 [Compound 30]
≥ 80%: inhibition at 200 ppm [1] | inhibition at 200 ppm [2] | pest or weed control at 200 ppm [7] | inhibition at 200 ppm [8] | inhibition at 200 ppm [3] | inhibition at 200 ppm [4] | pest or weed control at 200 ppm [10] | inhibition at 200 ppm [5] | pest or weed control at 200 ppm [9] | pest or weed control at 200 ppm [11] | inhibition at 200 ppm [6]

Cc1cccc(Cc2cccc(-c3ncc4c(n3)CCCCC4)n2)c1 [Compound 31]
≥ 80%: inhibition at 200 ppm [1] | inhibition at 200 ppm [2] | pest or weed control at 200 ppm [7] | inhibition at 200 ppm [8] | pest or weed control at 200 ppm [10] | inhibition at 200 ppm [5] | pest or weed control at 200 ppm [9] | pest or weed control at 200 ppm [11] | inhibition at 200 ppm [6]

Cc1ccccc1Cc1cccc(-c2ncc3c(n2)CCCCC3)n1 [Compound 32]
≥ 80%: inhibition at 200 ppm [1] | inhibition at 200 ppm [2] | pest or weed control at 200 ppm [7] | inhibition at 200 ppm [8] | inhibition at 200 ppm [3] | inhibition at 200 ppm [4] | pest or weed control at 200 ppm [10] | inhibition at 200 ppm [5] | pest or weed control at 200 ppm [9] | pest or weed control at 200 ppm [11] | inhibition at 200 ppm [6]

COc1ccccc1Cc1cccc(-c2ncc3c(n2)CCCCC3)n1 [Compound 34]
≥ 80%: inhibition at 200 ppm [1] | inhibition at 200 ppm [2] | pest or weed control at 200 ppm [7] | inhibition at 200 ppm [8] | inhibition at 200 ppm [3] | inhibition at 200 ppm [4] | pest or weed control at 200 ppm [10] | inhibition at 200 ppm [5] | pest or weed control at 200 ppm [9] | pest or weed control at 200 ppm [11] | inhibition at 200 ppm [6]

Cc1ccc(Cc2cccc(-c3ncc4c(n3)CC(C)(C)CC4)n2)cc1 [Compound 36]
≥ 80%: inhibition at 200 ppm [1] | inhibition at 200 ppm [2] | pest or weed control at 200 ppm [7] | inhibition at 200 ppm [8] | inhibition at 200 ppm [3] | inhibition at 200 ppm [4] | pest or weed control at 200 ppm [10] | inhibition at 200 ppm [5] | pest or weed control at 200 ppm [11] | inhibition at 200 ppm [6]

COc1ccc(Cc2cccc(-c3ncc4c(n3)CCCCC4)n2)cn1 [Compound 39, 2-[6-(6-Methoxy-pyridin-3-ylmethyl)-pyridin-2-yl]-6,7,8,9-tetrahydro-5H-cycloheptapyrimidine]
≥ 80%: inhibition at 200 ppm [1] | inhibition at 200 ppm [2] | pest or weed control at 200 ppm [7] | pest or weed control at 200 ppm [10] | inhibition at 200 ppm [5] | pest or weed control at 200 ppm [9] | pest or weed control at 200 ppm [11] | inhibition at 200 ppm [6]

COc1ccc(C(C)c2cccc(-c3ncc4c(n3)CC(C)(C)CC4)n2)cn1 (stereo not shown) [Compound 43]
≥ 80%: inhibition at 200 ppm [1] | inhibition at 200 ppm [2] | pest or weed control at 200 ppm [7] | inhibition at 200 ppm [3] | inhibition at 200 ppm [4] | pest or weed control at 200 ppm [10] | inhibition at 200 ppm [5] | pest or weed control at 200 ppm [11] | inhibition at 200 ppm [6]
